Data reported in PMC9652379, “Safety evaluations of a synthetic antimicrobial peptide administered intravenously in rats and dogs” (Scientific Reports, 2022).
Positions of bridges follow the written chain, without caps; N, C: chain ends. Non-standard residues stand in square brackets, D forms with d. Residues, ends and D or L forms follow the SMILES beside them. Chains are numbered I, II in the order given. βAla = NCCC(=O)O

Experiments:
Format in all cases: in vivo, rat
[1] = Dose range finding in rats: toxicokinetics; details: for quantifiable plasma concentrations until, post-dose: rat, in vivo; for mean AUCt ratio, low vs. high dose (theoretical ratio 2) / mean Cmax ratio, low vs. high dose (theoretical ratio 2): rats, 10 vs 20 mg/kg/day iv bolus
Method: SET-M33 concentration was determined after administration by intravenous bolus for 7 days at 10 mg/kg/day and 20 mg/kg/day. Exposure parameters (AUCt and Cmax) were compared in order to evaluate dose-dependency, accumulation ratio and sex-related differences. […] Mean plasma levels of SET-M33 increased in parallel with dose in males and females. Mean time to maximum concentrations (tmax) were observed immediately after administration, 5 min post-dose for both periods (days 1 and 7) and sexes, coherently with intravenous bolus administration.
Blood samples were collected from the retro-orbital plexus of animals under light isoflurane anaesthesia. Blood samples were taken from three males and three females at each extraction time. Sampling times were as follows: Day 1: 5, 15, 30 and 60 min after administration. Day 7: pre-dose and 5, 15, 30, 60 min and 24 h after administration. Control animals were bled only once on days 1 and 7 of treatment at 30 min after treatment. Each blood sample was collected into a polypropylene test tube containing lithium heparin as anticoagulant and kept in an ice bath until centrifuging (1600 g for 10 min at 2–8 °C). The plasma from each sample was transferred to a fresh polypropylene test tube, immediately frozen in dry ice and stored at − 20 °C ± 5.

Sprague Dawley rats [2] = assay: Four-week toxicity study in rats: clinical biochemistry and urinalysis; details: mean ± SD
Method: (§1) The purpose of this study was to evaluate the toxic effects of SET-M33 when administered intravenously to Sprague Dawley rats for 4 weeks. Recovery was evaluated during a 14-day drug-free period. The peptide was administered once a day at three dose levels at 5, 9 and 15 mg/kg/day, and the control group was treated with the vehicle (ten males and ten females per group which were sacrificed after 4 weeks for clinical and necroscopy analyses; five males and five females for the control and 15 mg/kg/day groups which were sacrificed after the 2 weeks recovery period). The higher dose was selected on the basis of the DRF study (above) in which evident toxicity was recorded at the dose of 20 mg/kg. The efficacy dose in mouse is 5 mg/kg[24]. The lowest dose of this test is approximately twice the equivalent efficacy dose in rat (using body surface area) and the intermediate dose is approximately the geometric mean of the other two.
Blood samples were collected into lithium heparin tubes. The following parameters were determined using a Cobas 6000 Analyzer (Roche): glucose (Gluc), urea (Urea), creatinine (Creat), bilirubin, total (Bili), cholesterol, total (Chol), triglycerides (Trig), aspartate aminotransferase (AST), alanine aminotransferase (ALT), alkaline phosphatase (ALP), creatine kinase (CK), gamma-glutamyl-transferase (gGT), calcium (Ca), inorganic phosphorus (Phos), sodium (Na), potassium (K), chloride (Cl), albumin (Alb), globulin (calculated from total protein and Alb%) (Glob), total protein (Total Prot), album/globulin ratio (A/G ratio).
Urine was collected overnight into specimen vials (animals were placed in metabolism cages at the end of the working day preceding the day of urine collection). The following parameters were determined using a Cobas u 411 semi-automated test strip analyser (Roche): specific gravity (SG1), protein (Prot), ketones (Keto), volume (Vol), creatinine (U-Creat), bilirubin (Bili), colour (Col), glucose (U-Gluc), erythrocytes (U-RBC), appearance (App), nitrite (Nite), pH, leukocytes (U-WBC).

rats = assay: Respiratory function in rats (whole body plethysmography)
Method: The possible side-effects of SET-M33 on respiratory function were evaluated after administration of the peptide as a single intravenous bolus at doses of 5, 9 and 15 mg/kg with vehicle (eight animals/group). Respiratory rate, tidal volume and minute volume were assessed. As in the case of neurological toxicity and the 4-week toxicity study, again the dose levels were selected on the basis DRF (above). Baclofen, a muscle relaxer and antispasmodic used to treat muscle pain, spasms and stiffness in people with multiple sclerosis or spinal cord injury or disease, was used as positive control. It was administered as a single intravenous injection at a dose of 15 mg/kg.
Whole body, bias flow plethysmography equipment was used[51]. Respiratory parameters (respiratory rate, tidal volume and minute volume) were derived from the changes in pressure associated with the warming and humidification of the air breathed in by the animal. This was monitored by specific probes located in the plethysmograph chambers. Bias flow (room air) was set at approximately 2.5 L/min. On a day prior to the first day of dosing, all animals were habituated to the plethysmographs for approximately 2 h. The study was run over 4 days and 10 animals (two from each group) were examined each day. On the day of dosing, the animals were placed in the plethysmographs for pre-dose recording (session 1) of respiratory parameters for 60 min. Groups of 8 rats were then removed from the chambers and dosed by intravenous bolus injection with vehicle, SET-M33 or positive control. Immediately after dosing, the rats were placed in the whole body plethysmographs, where they could move about freely, to continuously record respiratory parameters for 4 h post-dose (undisturbed recording). Immediately after the last post-dose recording, the animals were killed humanely by a rising concentration of carbon dioxide. Death was confirmed by dislocation of the neck. Respiratory parameters were reported at the following time points: 0, 30, 60, 90, 120, 150, 180, 210 and 240 min. Time 0 coincided with the mean value of the last 20 min of data recorded in the 60-min pre-dose period. All other time points were the mean of 10-min recordings (an average of every 10 breaths) around each time point. Each post-dose time point was analysed separately by analysis of covariance. Factors in the model were group and day of data collection, with pre-dose values as covariate.

Sprague Dawley rats [3] = assay: Four-week toxicity study with 2-week recovery in rats: mortality, clinical signs, body weight; details: for weight loss of euthanized animal: 15 mg/kg/day
Method: as §1
One male died on day 8 and one male and one female were euthanized for animal welfare reasons on days 6 and 10 of the recovery period, respectively, after showing various clinical signs (hunched back, abnormal gait and pallor) and weight loss of 14% and 11%, respectively. SET-M33-related effects consisting of decreased motor activity, irregular breathing, piloerection, closed or partially closed eyelids, abnormal gait and hunched back were recorded in animals treated at 15 mg/kg/day just after administration for the whole treatment period (as in the DRF study above). […] Among animals that had to be sacrificed for welfare reasons, abnormal gait, partially closed eyelids (the male) and decreased motor activity and piloerection (the female) were also recorded from day 3 onwards. […] During the recovery period, body-weight loss (between 2 and 14% based on individual values) was recorded in some animals dosed at 15 mg/kg/day.
Viability/mortality was monitored twice daily throughout the study. Detailed clinical signs were evaluated once at pre-test, once/twice daily during the treatment period and on days 1, 8, 10 to 14 of the recovery period. […]

In the case of `CC[C@H](C)[C@H](NC(=O)[C@H](CCCCN)NC(=O)[C@@H](N)CCCCN)C(=O)N[C@@H](CCCNC(=N)N)C(=O)N[C@H](C(=O)N[C@@H](CCCNC(=N)N)C(=O)N[C@@H](CC(C)C)C(=O)N[C@@H](CO)C(=O)N[C@@H](C)C(=O)NCCCC[C@H](NC(=O)[C@H](C)NC(=O)[C@H](CO)NC(=O)[C@H](CC(C)C)NC(=O)[C@H](CCCNC(=N)N)NC(=O)[C@@H](NC(=O)[C@H](CCCNC(=N)N)NC(=O)[C@@H](NC(=O)[C@H](CCCCN)NC(=O)[C@@H](N)CCCCN)[C@@H](C)CC)C(C)C)C(=O)NCCCC[C@H](NC(=O)[C@H](CCCCNC(=O)[C@H](C)NC(=O)[C@H](CO)NC(=O)[C@H](CC(C)C)NC(=O)[C@H](CCCNC(=N)N)NC(=O)[C@@H](NC(=O)[C@H](CCCNC(=N)N)NC(=O)[C@@H](NC(=O)[C@H](CCCCN)NC(=O)[C@@H](N)CCCCN)[C@@H](C)CC)C(C)C)NC(=O)[C@H](C)NC(=O)[C@H](CO)NC(=O)[C@H](CC(C)C)NC(=O)[C@H](CCCNC(=N)N)NC(=O)[C@@H](NC(=O)[C@H](CCCNC(=N)N)NC(=O)[C@@H](NC(=O)[C@H](CCCCN)NC(=O)[C@@H](N)CCCCN)[C@@H](C)CC)C(C)C)C(=O)NCCC(=O)O)C(C)C` [SET-M33] (I: H-KKIRVRLSAKK[βAla]-OH / II: H-KKIRVRLSAK / III: H-KKIRVRLSA / IV: H-KKIRVRLSA; amide I:10-IV:C, I:11-II:C, II:10-III:C (inferred); N-terminus and C-terminus assumed), the “quantifiable plasma concentrations until, post-dose” value [1] is reported as 1 h, the “quantifiable plasma concentrations until, post-dose” value ([1]; iv, 10 mg/kg/day) is reported as 0.5 to 1 h and the “quantifiable plasma concentrations until, post-dose” value ([1]; iv, 20 mg/kg/day) is reported as “up to 24 h”. For the same compound, the “mean AUCt ratio, low vs. high dose (theoretical ratio 2)” value ([1]; day 1) was 2.2, the “mean Cmax ratio, low vs. high dose (theoretical ratio 2)” value ([1]; day 1) was 2.4 to 2.7 and the “mean AUCt ratio, low vs. high dose (theoretical ratio 2)” value ([1]; day 7) was 9.8–14.0. For the same compound, the “mean Cmax ratio, low vs. high dose (theoretical ratio 2)” value ([1]; day 7) was 2.8–7.2, the “Phos, inorganic phosphorus” value (Sprague Dawley rats [2]; female rats, 9 mg/kg/day iv, week 4 of treatment) was 1.49 ± 0.415 mmol/L and the “Phos, inorganic phosphorus” value (Sprague Dawley rats [2]; female rats, 15 mg/kg/day iv 4 weeks, week 2 of recovery) was 2.04 ± 0.616 mmol/L. The “Phos, inorganic phosphorus” value (Sprague Dawley rats [2]; male rats, 5 mg/kg/day iv, week 4 of treatment) was 1.97 ± 0.309 mmol/L, the “Phos, inorganic phosphorus” value (Sprague Dawley rats [2]; male rats, 9 mg/kg/day iv, week 4 of treatment) was 2.26 ± 0.393 mmol/L and the “Phos, inorganic phosphorus” value (Sprague Dawley rats [2]; male rats, 15 mg/kg/day iv 4 weeks, week 2 of recovery) was 2.83 ± 1.37 mmol/L. For the same compound, the “minute volume vs vehicle” value (rats; rats, 15 mg/kg single iv bolus, 30 min post-dose, subsided by 60 min) was “statistically significant increase”, the “effects on respiratory rate, tidal volume or minute volume” value (rats; rats, 5, 9 and 15 mg/kg single iv bolus, 4 h post-dose, n=8/group) was “did not produce any statistically significant adverse effects” and the “weight loss of euthanized animal” value (Sprague Dawley rats [3]; one female rat, euthanized day 10 of recovery) was 11%. The “weight loss of euthanized animal” value (Sprague Dawley rats [3]; one male rat, euthanized day 6 of recovery) was 14% and the mortality (Sprague Dawley rats [3]; rats, 5, 9 and 15 mg/kg/day iv 4 weeks + 2-week recovery) was “Mortality was only recorded at 15 mg/kg/day”.
